“And” between values parts separate entries of the source, which are not always exact repeats. Equal values may be shown once.
Assays:
PAD4 = PAD4 (Homo sapiens, UniProt Q9UM07); assay: Steady-state kinetic assay of protein citrullination using Rh-PG; type: biochemical; conditions: recombinant huApoA1, Rh-PG readout
PAD2 = PAD2 (Homo sapiens, UniProt Q9Y2J8); assay: Kinetic characterization of ApoA1 as a PAD substrate using Rh-PG; type: biochemical; conditions: recombinant huApoA1, Rh-PG readout
Protocol: (§1) To verify that ApoA1 is the modified 25 kDa protein in the UC samples, anti-ApoA1 Western blotting of Biotin-PG pulldown samples was performed (FIG. 24A). […] To test human ApoA1 as a PAD substrate, recombinant huApoA1 was first treated ±PADs 1-4 and then analyzed with the Rh-PG probe (FIG. 24B). […] PADs 2, 3, and 4 also modified ApoA1, albeit to a lesser extent. To further evaluate citrullination of ApoA1, the steady state kinetic parameters were determined using Rh-PG.

PAD3 = target: T1, PAD3 (Homo sapiens, UniProt Q9ULW8); assay: as above; type: biochemical; conditions: recombinant huApoA1, Rh-PG readout
T1 sequence (Q9ULW8 1-664): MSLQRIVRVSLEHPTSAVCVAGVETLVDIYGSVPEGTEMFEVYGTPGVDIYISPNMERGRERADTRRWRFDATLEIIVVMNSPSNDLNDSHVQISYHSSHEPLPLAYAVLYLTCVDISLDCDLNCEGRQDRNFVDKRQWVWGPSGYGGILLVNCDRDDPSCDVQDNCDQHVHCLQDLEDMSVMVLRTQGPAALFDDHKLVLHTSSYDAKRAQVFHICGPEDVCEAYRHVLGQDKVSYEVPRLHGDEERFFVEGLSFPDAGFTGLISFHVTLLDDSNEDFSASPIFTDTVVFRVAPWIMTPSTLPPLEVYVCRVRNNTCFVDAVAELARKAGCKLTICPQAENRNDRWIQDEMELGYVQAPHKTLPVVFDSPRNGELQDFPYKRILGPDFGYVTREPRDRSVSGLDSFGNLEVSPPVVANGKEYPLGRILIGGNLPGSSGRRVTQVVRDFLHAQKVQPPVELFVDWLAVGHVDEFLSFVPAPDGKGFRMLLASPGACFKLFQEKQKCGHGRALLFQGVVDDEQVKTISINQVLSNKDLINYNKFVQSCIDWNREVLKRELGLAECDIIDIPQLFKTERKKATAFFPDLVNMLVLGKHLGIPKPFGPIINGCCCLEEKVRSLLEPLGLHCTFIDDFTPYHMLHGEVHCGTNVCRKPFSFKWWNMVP
Protocol: as §1

autodeiminated PAD4 [1] = target: T2, autodeiminated PAD4 (Homo sapiens, UniProt Q9UM07); assay: Biotin-PG limit of detection, streptavidin-HRP blot; conditions: Example 1; 20% TCA, 0.1 mM Biotin-PG, 37° C., 3 h
Protocol: Biotin-PG Pulldown and Labeling—It was next set out to determine the utility of the biotin-tagged PG probe, Biotin-PG (FIG. 2), as a tool for labeling, isolating, and enriching citrullinated proteins. As with the Rh-PG probe, the LOD of this probe was first determined with respect to autodeiminated PAD4. For these studies, autodeiminated PAD4, prepared as described above, was diluted into 50 mM HEPES pH 8.0 to final concentrations of 1.6 μM, 0.16 μM, 16 nM, 1.6 nM, and 0.16 nM. These samples were then incubated at 37° C. for 3 h with 20% TCA and 0.1 mM Biotin-PG. Solutions were quenched, cooled on ice for 30 min, and centrifuged at 14,000 rpm for 15 min at 4° C. The supernatant was removed and samples were washed with cold acetone and dried at 100° C. for 5 min. Proteins were resuspended in 25 μL of 50 mM HEPES and boiled with 6×SDS loading dye and various amounts of protein (i.e., 1,000, 100, 10, 1, and 0.1 ng) loaded onto a 12% SDS-PAGE gel. Gel electrophoresis was performed at 200 V for 50 min and proteins were subsequently electrotransferred to nitrocellulose (tris-glycine buffer; 80 V; 70 min) and the membrane blocked with 5% BSA in PBS for 1 h at rt. After washing 2× with PBS (10 min), the blot was treated with streptavidin-HRP (1:20,000) in 5% BSA in PBS for 1 h at rt. […]

autodeiminated PAD4 [2] = target: T2, autodeiminated PAD4; assay: Rh-PG limit of detection, SDS-PAGE and fluorescent imaging; conditions: Example 1; 20% TCA, 0.1 mM Rh-PG, 37° C., 3 h; LOD defined as three times the noise
Protocol: The sensitivity of the probe was analyzed next (FIGS. 5A, 5B). Autodeiminated PAD4, prepared as described above, was diluted into 50 mM HEPES pH 8.0 to final concentrations of 1.6 μM, 0.16 μM, 16 nM, 1.6 nM, and 0.16 nM. To one set of samples was added 0.1 mM Rh-PG, and to a second set, 20% TCA and 0.1 mM Rh-PG. The samples were then incubated at 37° C. for 3 h. To TCA precipitate autodeiminated PAD4, the acidic solutions were cooled on ice for 30 min and then centrifuged at 14,000 rpm for 15 min at 4° C. The supernatant was removed and samples were washed with cold acetone and dried at 100° C. for 5 min. Proteins were resuspended in 25 μL of 50 mM HEPES. Both basic and acidic samples were then boiled with 6×SDS loading dye and various amounts of protein (i.e., 1000, 100, 10, 1, and 0.1 ng) loaded onto a 12% SDS-PAGE gel. Gel electrophoresis was performed at 170 V for 60 min and the gels analyzed on a Typhoon Imager (Ex. 532 nm; Em. 580 nm) (FIGS. 5A, 5B). […]
Rh-PG Limit of Detection: Citrullinated H3 and autodeiminated PAD4, prepared as described above, were diluted into 50 mM HEPES pH 7.6 to final concentrations of (2.2 μM, 0.22 μM, 22 nM, 2.2 nM, and 0.22 nM H3) and (0.16 μM, 16 nM, 1.6 nM, 0.16 nM, and 0.016 nM PAD4). […] Gel electrophoresis was performed at 170 V for 50 min and the gels analyzed on a Typhoon Imager (Ex. 532 nm; Em. 580 nm).

[3] = test system: DSS induced ulcerative colitis; conditions: cited from earlier work
[4] = test system: serum protein citrullination; assay: Rh-PG analysis of murine ulcerative colitis serum samples; type: in vivo, mouse; conditions: serum of DSS mice treated with Cl-amidine
Protocol: Rh-PG Analysis of Murine Ulcerative Colitis Serum Samples: Serum samples Cl-amidine efficacy in a mouse model of ulcerative colitis were obtained and analyzed by the Rh-PG method. Briefly, the protein concentration of serum samples was first obtained using a standard Lowry assay. A sample (2 mg/mL; 30 μL) of each serum sample (i.e., 14 total; 7 DSS; 7 DSS+Cl-amidine) was prepared in 50 mM HEPES and treated with 20% TCA and 0.1 mM Rh-PG for 30 min at 37° C. Samples were then quenched with citrulline, cooled, centrifuged, washed, and dried. After resuspending in 50 mM HEPES, samples were separated by SDS-PAGE (12%; 170 V; 50 min) and imaged on a Typhoon Imager (Ex. 532 nm; Em. 580 nm). Images were analyzed using ImageQuant 5.2 and correlation coefficients were determined using Microsoft Excel. These experiments were run in duplicate on different days. Subsequent statistical analysis was done using STATISTICA, utilizing two-tailed, independent student's t-tests to determine significance (i.e., P-value) between diseased and Cl-amidine treated samples. Correlation coefficients were calculated in Microsoft Excel, utilizing a table of critical values of Pearson's r with a degree of freedom value of 12 (n−2) to determine the significance (i.e., P-value) of the correlation between the fluorescence of a particular protein and a disease score.

[5] = group average, Group 8 WT, 2% DSS + Cl-Amidine @ 75 mg/kg
[6] = individual mice, Group 8 WT, 2% DSS + Cl-Amidine @ 75 mg/kg

T2 sequence (Q9UM07 whole entry): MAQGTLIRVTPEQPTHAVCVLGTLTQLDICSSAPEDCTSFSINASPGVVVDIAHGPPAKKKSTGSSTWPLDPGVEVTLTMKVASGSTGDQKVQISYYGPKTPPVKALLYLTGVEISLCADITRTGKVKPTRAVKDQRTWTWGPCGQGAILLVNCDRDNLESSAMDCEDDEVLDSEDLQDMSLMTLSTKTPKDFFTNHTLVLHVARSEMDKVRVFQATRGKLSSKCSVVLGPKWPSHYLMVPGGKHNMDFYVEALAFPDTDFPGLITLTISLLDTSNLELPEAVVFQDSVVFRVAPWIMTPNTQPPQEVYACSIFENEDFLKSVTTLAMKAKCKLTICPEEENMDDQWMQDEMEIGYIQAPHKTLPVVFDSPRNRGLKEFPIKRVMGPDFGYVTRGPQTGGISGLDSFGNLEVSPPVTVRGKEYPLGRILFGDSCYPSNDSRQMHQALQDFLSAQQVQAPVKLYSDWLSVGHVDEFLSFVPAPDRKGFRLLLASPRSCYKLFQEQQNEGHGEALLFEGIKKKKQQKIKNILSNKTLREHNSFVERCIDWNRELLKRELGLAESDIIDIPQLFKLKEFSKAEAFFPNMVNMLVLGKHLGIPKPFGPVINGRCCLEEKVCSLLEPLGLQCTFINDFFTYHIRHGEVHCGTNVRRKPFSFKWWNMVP
Sequence of PAD4 (Q9UM07 whole entry, species assumed): as the sequence (Q9UM07 whole entry) above
Sequence of PAD2 (Q9Y2J8 whole entry, species assumed): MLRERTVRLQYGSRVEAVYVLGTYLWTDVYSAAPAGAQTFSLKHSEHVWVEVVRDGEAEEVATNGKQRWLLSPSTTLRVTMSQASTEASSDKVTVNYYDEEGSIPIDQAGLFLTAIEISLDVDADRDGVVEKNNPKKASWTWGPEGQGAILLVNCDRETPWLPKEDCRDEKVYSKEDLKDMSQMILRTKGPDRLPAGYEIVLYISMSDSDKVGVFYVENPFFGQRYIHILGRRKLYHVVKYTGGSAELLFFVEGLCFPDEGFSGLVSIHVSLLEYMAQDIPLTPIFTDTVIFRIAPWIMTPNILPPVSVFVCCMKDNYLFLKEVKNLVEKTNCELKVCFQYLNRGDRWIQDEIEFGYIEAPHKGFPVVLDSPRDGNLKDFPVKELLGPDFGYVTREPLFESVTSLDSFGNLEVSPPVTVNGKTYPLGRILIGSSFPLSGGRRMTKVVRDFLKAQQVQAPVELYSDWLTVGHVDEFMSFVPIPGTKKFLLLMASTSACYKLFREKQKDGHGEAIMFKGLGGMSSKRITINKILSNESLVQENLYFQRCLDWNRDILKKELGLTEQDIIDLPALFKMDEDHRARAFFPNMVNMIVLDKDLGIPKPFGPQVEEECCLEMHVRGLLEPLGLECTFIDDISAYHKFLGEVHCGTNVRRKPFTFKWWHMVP

ApoA1: apolipoprotein-A1, a key component of High Density Lipoprotein; recombinant huApoA1 tested as PAD substrate
substrate quality for PAD4 (PAD4): modest substrate | substrate quality for PAD2 (PAD2): modest substrate | substrate quality for PAD3 (PAD3): modest substrate

O=CC(=O)c1cccc(NC(=O)CCn2cc(CCCC(=O)NCCNC(=O)CCCC[C@@H]3SC[C@@H]4NC(=O)N[C@@H]43)nn2)c1 [Biotin-PG]
limit of detection of Biotin-PG probe, autodeiminated PAD4 (autodeiminated PAD4 [1]): 100 ng

CC(C(=O)Nc1cccc(C(=O)C=O)c1)n1cc(CNC(=O)c2ccc3c(c2)C2(OC3=O)c3ccc(N(C)C)cc3Oc3cc(N(C)C)ccc32)nn1 (stereo not shown) [Rh-PG, N-(3-Glyoxyl)phenylamino)propionyl)-1H-1,2,3-triazol-4-yl)methyl-5(6)-carboxamidotetramethyl rhodamine hydrate]
limit of detection (LOD) of Rh-PG probe labeling of autodeiminated PAD4 (autodeiminated PAD4 [2]): 1 ng

NC(=O)[C@H](CCCN=C(N)CCl)NC(=O)c1ccccc1 [Cl-amidine]
disease severity ([3]; DSS mouse model of ulcerative colitis, previous study (Chumanevich 2011)): reduces disease severity | Colon Length, Average [3, 5]: 8.1 cm | Inflam. Score, Average [3, 5]: 14.6 | Lym, Average [3, 5]: 8.2 m/mm^3 | WBC, Average [3, 5]: 13.7 m/mm^3 | Weight (end), Average [3, 5]: 23.3 g | Weight Diff., Average [3, 5]: 0.7 g | Colon Length [3, 6]: 7.6 cm (2×) and 8.1 cm and 8.2 cm and 8.6 cm and 8 cm and 8.4 cm | Inflam. Score [3, 6]: 14 (2×) and 24 and 12 (2×) and 10 and 16 | Lym [3, 6]: 5.68 m/mm^3 and 3.87 m/mm^3 and 11.35 m/mm^3 and 9.4 m/mm^3 and 6.87 m/mm^3 and 9.35 m/mm^3 and 10.83 m/mm^3 | WBC [3, 6]: 9.75 m/mm^3 and 9.08 m/mm^3 and 18.14 m/mm^3 and 15.12 m/mm^3 and 11.46 m/mm^3 and 15.91 m/mm^3 and 16.41 m/mm^3 | Weight Diff. [3, 6]: 0.8 g (2×) and 0.15 g and 1.3 g and 0.5 g and 0.7 g and 0.3 g | Weight (end) ([3]; individual mice, Group 8 WT, 2% DSS + Cl-Amidine @ 75 mg/kg, in g): 23.4 and 22.05 and 22.7 and 24.1 and 25 and 22.5 and 23.6 | effect on global citrullination (whole lane) [4]: significantly decreases global citrullination

— US9921225B2, “Phenyl glyoxal probes” (The Scripps Research Institute, priority 2012, dated 2018)
